According to US10376481B2, “Compounds and methods for inhibiting NHE-mediated antiport in the treatment of disorders associated with fluid retention or salt overload and gastrointestinal tract disorders” (ARDELYX, INC, priority 2012, dated 2019):

How the values were obtained:
[1] = human absorption data, from Ertl et al.; cited from earlier work
human NHE3 [2] = biological target: T1, human NHE3 (Homo sapiens, UniProt P48764); assay: Cell-based assay of NHE-3 activity (persistent inhibition), human; conditions: PS120 fibroblasts stably expressing human NHE3, 60 min incubation then washout; for IC50: read-out: pIC50 (human Persistence assay) (converted)
T1 sequence (P48764 26-834): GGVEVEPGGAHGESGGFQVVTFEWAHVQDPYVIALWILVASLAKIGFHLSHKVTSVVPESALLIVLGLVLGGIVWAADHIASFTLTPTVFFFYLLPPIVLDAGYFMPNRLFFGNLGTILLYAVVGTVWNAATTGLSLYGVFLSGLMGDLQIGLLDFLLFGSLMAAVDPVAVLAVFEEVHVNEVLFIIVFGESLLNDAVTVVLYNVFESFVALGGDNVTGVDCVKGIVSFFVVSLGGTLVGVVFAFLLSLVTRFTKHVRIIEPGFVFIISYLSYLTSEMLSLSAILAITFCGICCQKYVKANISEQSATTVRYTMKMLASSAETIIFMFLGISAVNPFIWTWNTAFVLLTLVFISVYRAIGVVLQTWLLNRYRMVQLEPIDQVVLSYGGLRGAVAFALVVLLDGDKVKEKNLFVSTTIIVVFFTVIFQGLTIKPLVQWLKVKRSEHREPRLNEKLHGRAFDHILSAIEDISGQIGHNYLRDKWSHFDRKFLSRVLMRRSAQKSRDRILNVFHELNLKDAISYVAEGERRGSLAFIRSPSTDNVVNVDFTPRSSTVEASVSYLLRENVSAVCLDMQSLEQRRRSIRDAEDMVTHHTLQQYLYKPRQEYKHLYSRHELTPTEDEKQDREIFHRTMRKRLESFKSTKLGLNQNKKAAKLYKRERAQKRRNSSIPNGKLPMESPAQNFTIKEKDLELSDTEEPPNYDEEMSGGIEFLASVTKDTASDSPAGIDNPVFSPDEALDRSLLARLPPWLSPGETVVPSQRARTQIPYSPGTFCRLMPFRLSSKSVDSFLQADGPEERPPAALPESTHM
Procedure: The ability of compounds to inhibit human and rat NHE-3-mediated Na^+-dependent H^+ antiport after application and washout was measured using a modification of the pH sensitive dye method described above. PS120 fibroblasts stably expressing human NHE3 were obtained from Mark Donowitz (Baltimore, Md.). Opossum kidney (OK) cells were obtained from the ATCC and propagated per their instructions. The rat NHE-3 gene was introduced into OK cells via electroporation, and cells were seeded into 96 well plates and grown overnight. Medium was aspirated from the wells, cells were washed once with NaCl-HEPES buffer (100 mM NaCl, 50 mM HEPES, 10 mM glucose, 5 mM KCl, 2 mM CaCl2, 1 mM MgCl2, pH 7.4), then overlayed with NaCl-HEPES buffer containing 0-30 μM test compound. After a 60 min incubation at room temperature, the test drug containing buffer was aspirated from the cells. Following aspiration, cells were washed once with NaCl-HEPES buffer without drug, then incubated for 30 min at 37° C. with NH4Cl-HEPES buffer (20 mM NH4Cl, 80 mM NaCl, 50 mM HEPES, 5 mM KCl, 2 mM CaCl2, 1 mM MgCl2, pH 7.4) containing 5 μM BCECF-AM. Cells were washed once with Ammonium free, Na^+-free HEPES (100 mM choline, 50 mM HEPES, 10 mM glucose, 5 mM KCl, 2 mM CaCl2, 1 mM MgCl2, pH 7.4) and incubated in the same buffer for 10 minutes at room temperature to lower intracellular pH. NHE-3-mediated recovery of neutral intracellular pH was initiated (10 min after compound washout) by addition of Na-HEPES buffer. […] Changes in intracellular pH were monitored using a FLIPR Tetra® (Molecular Devices, Sunnyvale, Calif.) by excitation at λex 439 to 505 nm, and measuring BCECF fluorescence at λem 538 nm. The initial rate of the fluorescence ratio change was used as a measure of NHE-mediated Na^+/H^+ activity, and reported as the change in fluorescence ratio per minute. Initial rates were plotted as the average 2 or more replicates, and pIC50 values were estimated using GraphPad Prism.

human NHE3 [3] = biological target: T1, human NHE3; assay: Cell-based assay of NHE-3 activity (pre-incubation inhibition), human; conditions: for IC50: PS120 fibroblasts stably expressing human NHE3, 10 min pre-incubation with 0-30 μM test compound, read-out: pIC50 (human Preincubation assay) (converted); for % inhibition (human Preincubation assay): PS120 fibroblasts stably expressing human NHE3, pre-incubation with test compound
Procedure: Rat and human NHE-3-mediated Na^+-dependent H^+ antiport was measured using a modification of the pH sensitive dye method originally reported by Paradiso (Proc. Natl. Acad. Sci. USA. (1984) 81(23): 7436-7440, which is hereby incorporated by reference in its entirety). PS120 fibroblasts stably expressing human NHE3 were obtained from Mark Donowitz (Baltimore, Md.). Opossum kidney (OK) cells were obtained from the ATCC and propagated per their instructions. The rat NHE-3 gene (GenBank M85300) was introduced into OK cells via electroporation, and cells were seeded into 96 well plates and grown overnight. Medium was aspirated from the wells then incubated for 30 min at 37° C. with NH4Cl-HEPES buffer (20 mM NH4Cl, 80 mM NaCl, 50 mM HEPES, 5 mM KCl, 2 mM CaCl2, 1 mM MgCl2, pH 7.4) containing 5 μM BCECF-AM. Cells were washed once with Ammonium free, Nat-free HEPES (100 mM choline, 50 mM HEPES, 10 mM glucose, 5 mM KCl, 2 mM CaCl2, 1 mM MgCl2, pH 7.4) and incubated in the same buffer for 10 minutes at room temperature to lower intracellular pH with 0-30 μM test compound. […] Changes in intracellular pH were monitored using a FLIPR Tetra® (Molecular Devices, Sunnyvale, Calif.) by excitation at λex 439 to 505 nm, and measuring BCECF fluorescence at λem 538 nm. The initial rate of the fluorescence ratio change was used as a measure of NHE-mediated Na^+/H^+ activity, and reported as the change in fluorescence ratio per minute. Initial rates were plotted as the average 2 or more replicates, and pIC50 values were estimated using GraphPad Prism.

human NHE3 [4] = biological target: T1, human NHE3; assay: Cell-based assay of NHE-3 activity (human NHE3 inhibition assay); parameters: expressed in transfected cells; host or cells: Opossum kidney (OK) cells (ATCC), electroporated; conditions: OK cells with human NHE-3 gene, BCECF pH recovery, 0-30 μM test compound; read-out: Human NHE3 pIC50 (converted)
Procedure: Rat or human NHE-3-mediated Na^+-dependent H^+ antiport was measured using a modification of the pH sensitive dye method originally reported by Paradiso (Proc. Natl. Acad. Sci. USA. (1984) 81(23): 7436-7440). Opossum kidney (OK) cells were obtained from the ATCC and propagated per their instructions. The rat NHE-3 gene (GenBank M85300) or the human NHE-3 gene (GenBank NM_004174.1) was introduced into OK cells via electroporation, and cells were seeded into 96 well plates and grown overnight. Medium was aspirated from the wells, cells were washed twice with NaCl-HEPES buffer (100 mM NaCl, 50 mM HEPES, 10 mM glucose, 5 mM KCl, 2 mM CaCl2, 1 mM MgCl2, pH 7.4), then incubated for 30 min at room temperature with NH4Cl-HEPES buffer (20 mM NH4Cl, 80 mM NaCl, 50 mM HEPES, 5 mM KCl, 2 mM CaCl2, 1 mM MgCl2, pH 7.4) containing 5 μM bis(acetoxymethyl) 3,3′-(3′,6′-bis(acetoxymethoxy)-5-((acetoxymethoxy)carbonyl)-3-oxo-3H-spiro[isobenzofuran-1,9′-xanthene]-2′,7′-diyl)dipropanoate (BCECF-AM). Cells were washed twice with Ammonium free, Na^+-free HEPES (100 mM choline, 50 mM HEPES, 10 mM glucose, 5 mM KCl, 2 mM CaCl2, 1 mM MgCl2, pH 7.4) and incubated in the same buffer for 10 minutes at room temperature to lower intracellular pH. […] Initial rates were plotted as the average 2 or more replicates, and pIC50 values were estimated using GraphPad Prism.

[5] = tested on: gastrointestinal motility; assay: Gastrointestinal transit (Evans Blue dye) in opioid induced constipation model; assay type: in vivo, mice; conditions: oral vehicle, loperamide 3 mg/kg subcutaneous, 30-minute period; vehicle/vehicle approximately 70%
Procedure: Gastrointestinal transit is measured in mice treated with the peripherally acting μ-opioid agonist loperamide to assess the ability of selected example compounds to restore gastrointestinal motility in a model of opioid induced constipation. Approximately eight-week old, female, CD1 […] are purchased from Envigo (Livermore, Calif.), are housed 4 per cage and acclimated for at least 48 hours before study initiation. Animals are fed standard laboratory rodent chow Harlan Teklad Global 2018 (Maddison, Wis.). […] 30 minutes later, animals are euthanized by carbon dioxide inhalation, and the length from the pylorus to cecum (whole length of the small intestine) and the length from the pylorus to the Evans Blue dye front are measured and recorded. For an individual animal, the length travelled by the Evans Blue dye front is divided by the length of the whole small intestine, measured from the pylorus to the cecum, and multiplied by 100, to provide the distance of the small intestine travelled by the dye as a percentage. […] The effect of example compounds on GIT motility in the presence of loperamide is calculated as the ability to restore vehicle/vehicle transit distance from the vehicle/loperamide transit, expressed as a percentage.

Compound	% FA [1] [%]	further results
OC[C@H]1O[C@@H](O[C@@H]2[C@@H](CO)OC(O)(CO)[C@H]2O)[C@H](O)[C@@H](O)[C@H]1O (mixture of isomers) [lactulose]	0.6	
O=C(NCCCCNC(=O)NCCOCCOCCNS(=O)(=O)c1ccc(O[C@H]2c3cc(Cl)cc(Cl)c3C[C@@H]2N2CCCC2)cc1)NCCOCCOCCNS(=O)(=O)c1ccc(O[C@H]2c3cc(Cl)cc(Cl)c3C[C@@H]2N2CCCC2)cc1 [Example 17]		% inhibition (human Persistence assay) (human NHE3 [2]): C (>70%); IC50 (human NHE3 [2]): < 100 nM; IC50 (human NHE3 [3]): < 100 nM; % inhibition (human Preincubation assay) (human NHE3 [3]): C (>70%); IC50 (human NHE3 [4]): < 100 nM
N[C@@H]1CCCN([C@H]2Cc3c(F)cc(Cl)cc3[C@@H]2Oc2ccc(S(=O)(=O)NCCOCCOCCNC(=O)NCCCCNC(=O)NCCOCCOCCNS(=O)(=O)c3ccc(O[C@H]4c5cc(Cl)cc(F)c5C[C@@H]4N4CCC[C@@H](N)C4)cc3)cc2)C1 [Example 29]		% inhibition (human Persistence assay) (human NHE3 [2]): B (40-70%); IC50 (human NHE3 [2]): > 1000 nM; IC50 (human NHE3 [3]): < 100 nM; % inhibition (human Preincubation assay) (human NHE3 [3]): C (>70%); IC50 (human NHE3 [4]): < 100 nM
C=CCc1ccccc1OCC(O)CNC(C)C (stereo not drawn) [alprenolol]	96	
O=C(O)P(=O)(O)O [foscarnet]	17	
CN(C)C(=O)C(CCN1CCC(O)(c2ccc(Cl)cc2)CC1)(c1ccccc1)c1ccccc1 [loperamide]		distance of the small intestine travelled by the Evans Blue dye front [5]: ~25%
OC[C@@H](O)[C@@H](O)[C@H](O)[C@H](O)CO [mannitol]	26	
Cc1ccccc1N1C(=O)c2cc(S(N)(=O)=O)c(Cl)cc2NC1C (stereo not drawn) [metolazone]	64	
O=C(O)c1cc(/N=N/c2ccc(O)c(C(=O)O)c2)ccc1O [olsalazine]	2.3	
C=CCOc1ccccc1OCC(O)CNC(C)C (stereo not drawn) [oxprenolol]	97	
CC(C)NCC(O)COc1cccc2[nH]ccc12 (stereo not drawn) [pindolol]	92	
CC(=O)Nc1ccc(OCC(O)CNC(C)C)cc1 (stereo not drawn) [practolol]	95	
OC[C@H]1O[C@H](OC[C@H]2O[C@H](O[C@]3(CO)O[C@H](CO)[C@@H](O)[C@@H]3O)[C@H](O)[C@@H](O)[C@@H]2O)[C@H](O)[C@@H](O)[C@H]1O [raffinose]	0.3	
O=C(O)c1cc(/N=N/c2ccc(S(=O)(=O)Nc3ccccn3)cc2)ccc1O [sulfasalazine]	12	
CCN1CCCC1CNC(=O)c1cc(S(N)(=O)=O)ccc1OC (stereo not drawn) [sulpiride]	36	
NC[C@H]1CC[C@H](C(=O)O)CC1 [tranexamic acid]	55	
